Test systems include HCT-15 colon; HOP-92 NSCLC; HT29 colon; NCI-H522 lung; NCI/ADR-RES ovarian; OVCAR-3 ovarian; RPMI-8226 leukemia; SF-268 CNS; SF-295 CNS; SNB-19 CNS.
What all share (assay): growth of human tumour cells (NCI), 48 h

Molecules are shown by their SMILES. Several values for one entry are separate records, joined by “and”; a condition that tells them apart may be missing. Equal entries are not always repeated.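 Compound exposure: 48 hours, 5 concentrations, 96-well plates. Here, GI50 denotes the concentration required for 50% inhibition of growth. TGI: total growth inhibition.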

Take `CCOc1ccc(-n2cc(-c3ccc(N(C)C)cc3)[n+]3c2CCCCC3)cc1`: the GI50 is 10.1 µM in the experiment on HCT-15 colon; 1.14 µM with HOP-92 NSCLC; 0.609 µM with HT29 colon; 0.125 µM in the experiment with NCI-H522 lung; 31.1 µM in the experiment with NCI/ADR-RES ovarian; 0.377 µM in the experiment on OVCAR-3 ovarian. Also, the GI50 in the experiment on RPMI-8226 leukemia is 0.0567 µM; in the experiment on SF-268 CNS, 2.2 µM; in the experiment on SF-295 CNS it was 0.618 µM; in the experiment with SNB-19 CNS, 0.452 µM. Besides, the TGI with HCT-15 colon is greater than 100 µM; in the experiment on HOP-92 NSCLC, 6.43 µM; in the experiment on HT29 colon, greater than 24.7 µM; in the experiment with NCI-H522 lung, 3.91 µM; in the experiment on NCI/ADR-RES ovarian it was greater than 100 µM; with OVCAR-3 ovarian, 60.2 µM. Also, the TGI in the experiment with RPMI-8226 leukemia was greater than 24.9 µM; in the experiment with SF-268 CNS, greater than 100 µM; in the experiment on SF-295 CNS it was 5.43 µM; in the experiment with SNB-19 CNS it was greater than 100 µM.
For the compound `COc1ccc(-n2cc(-c3ccc(F)cc3)[nH]c2=O)cc1OC`, the GI50 in the experiment with HCT-15 colon was greater than 100 µM; with HOP-92 NSCLC, 79.1 µM; in the experiment with HT29 colon it was greater than 100 µM; in the experiment with NCI-H522 lung it was greater than 100 µM; in the experiment on NCI/ADR-RES ovarian, greater than 100 µM; in the experiment with OVCAR-3 ovarian it was greater than 100 µM. The GI50 in the experiment with RPMI-8226 leukemia, in the experiment with SF-268 CNS, in the experiment with SF-295 CNS and with SNB-19 CNS was greater than 100 µM in each case. The TGI in the experiment on HCT-15 colon, in the experiment on HOP-92 NSCLC, in the experiment with HT29 colon, in the experiment on NCI-H522 lung, in the experiment on NCI/ADR-RES ovarian and with OVCAR-3 ovarian was greater than 100 µM throughout. Besides, the TGI in the experiment with RPMI-8226 leukemia, in the experiment on SF-268 CNS, in the experiment on SF-295 CNS and in the experiment with SNB-19 CNS was greater than 100 µM throughout.
Consider `N[C@@H](Cc1ccc(N(CCCl)CCCl)cc1)C(=O)O`, for which the GI50 in the experiment with HCT-15 colon was 19.4 µM and 21 µM; in the experiment on HOP-92 NSCLC, 11.9 µM and 15 µM; in the experiment with HT29 colon, 54.2 µM and 42.3 µM; in the experiment with NCI-H522 lung, 14.4 µM; in the experiment on NCI/ADR-RES ovarian, 30.6 µM and 32 µM; in the experiment with OVCAR-3 ovarian, 22.5 µM and 10.4 µM. In addition, the GI50 in the experiment with RPMI-8226 leukemia was 19.3 µM and 22.7 µM; in the experiment with SF-268 CNS, 7.08 µM and 5.64 µM; in the experiment on SF-295 CNS, 3.95 µM and 16 µM; in the experiment on SNB-19 CNS, 30.4 µM and 23 µM. In addition, the TGI with HCT-15 colon was > 100 µM and 54.9 µM and 133 µM; in the experiment with HOP-92 NSCLC, 52.3 µM and 42 µM and 103 µM; in the experiment on HT29 colon it was > 100 µM and 235 µM; in the experiment on NCI-H522 lung, 29.5 µM and 66.8 µM; in the experiment on NCI/ADR-RES ovarian, > 100 µM and 146 µM; in the experiment with OVCAR-3 ovarian it was 55.3 µM and 26.3 µM and 105 µM. The TGI in the experiment on RPMI-8226 leukemia was 75.4 µM and > 85 µM and 183 µM; in the experiment on SF-268 CNS, > 100 µM and 52.2 µM and 148 µM; with SF-295 CNS it was 49.2 µM and 72.1 µM and 128 µM; with SNB-19 CNS it was > 100 µM and 41.6 µM and 204 µM.
